Test results as given in US20020010132A1, “COMPOSITIONS OF MURAMYL PEPTIDES INHIBITING THE REPLICATION OF HIV” (VACSYN S.A., priority 1994, published 2002).

What was measured:
[1] = test system: HIV; settings: cited from earlier work
[2] = Clinical trials: tolerance in healthy volunteers and cancer subjects; format: in vivo, man
[3] = test system: macrophages in culture; assay: Proliferation of cultured macrophages (3H-thymidine incorporation); format: cell-based, human; settings: for inhibition of proliferation of macrophages stimulated with the combination IL-3/GM-CSF / inhibition of proliferation of macrophages stimulated with IL-3: 1 μg/ml; for inhibition of proliferation of macrophages stimulated with the combination IL-3/GM-CSF: hr IL-3 and hr GM-CSF stimulated; for inhibition of proliferation of macrophages stimulated with IL-3: hr IL-3 stimulated, compound added a day before 3H-thymidine; for inhibition of spontaneous proliferation: without stimulation
Method: For that, monocytes collected from a donor are cultured for 5 days either a) without stimulation (so as to evaluate their spontaneous proliferation level) or b) in the presence of human recombinant interleukin-3 (hr IL-3) or c) in the presence of both hr IL-3 and hr GM-CSF human recombinant granulocyte-macrophage colony stimulating factor. These two treatments make it possible to obtain a high level of proliferation. The compounds of the invention are added to the culture medium a day before the addition of tritiated thymidine (^3H-thymidine). The dividing cells incorporate this thymidine. The cells (which have differentiated into macrophages during the duration of the culture) are recovered and washed, and the proliferation level is evaluated by measuring, in a beta counter, the quantity of ^3H incorporated according to conventional methods as described in Blood, Vol. 76, pages 1490-1493, 1990.

[4] = test system: HIV (HTLV III Ba-L); assay: HIV replication in primary cultures of human monocytes (viral protein P24 in supernatants, day 7); format: cell-based
Method: Some cultures were treated with different concentrations of the compounds either 1 day before, or the same day, or 1 day after inoculation with HIV. The replication of the virus was evaluated on day 7 by measurement of the quantity of viral protein P24 in the supernatants as described in Blood, Vol. 76, page 1490-1493, 1990.

[5] = test system: HIV; settings: in vitro, 1000 μg/ml; cited from earlier work
[6] = test system: guinea pig macrophages; settings: cited from earlier work

Row | Compound | side effects in man [2] | tolerance in man [2] | inhibition of proliferation of macrophages stimulated with the combination IL-3/GM-CSF [3] | inhibition of proliferation of macrophages stimulated with IL-3 [3] | inhibition of spontaneous proliferation ([3]; 10 μg/ml) | other results
1 | CCCCCCCCCCCCCCCC(=O)OC[C@H](COP(=O)(O)OCCNC(=O)[C@H](C)NC(=O)CC[C@@H](NC(=O)[C@H](C)NC(=O)[C@@H](C)O[C@@H]([C@H](O)[C@H](O)CO)[C@H](C=O)NC(C)=O)C(N)=O)OC(=O)CCCCCCCCCCCCCCC [MTP-PE] |  |  |  |  |  | activity on viral replication ([1]; compound added a day before or 4 days after): minimal; total suppression of viral replication ([1]; free form or incorporated into liposomes): not capable; reduction in viral replication ([1]; free form, added repeatedly before and after HIV infection): only a partial reduction in viral replication
2 | COC(=O)[C@@H](CCC(N)=O)NC(=O)[C@H](C)NC(=O)[C@@H](C)O[C@H]1[C@H](O)[C@@H](CO)OC(O)[C@@H]1NC(C)=O (stereo partly drawn) [Murametide, Nac-Mur-L-Ala-DGln OMe] | free of side effects | very good tolerance | inhibiting the proliferation | inhibiting the proliferation | inhibition of spontaneous proliferation was observed | inhibition of spontaneous proliferation ([3]; 50 μg/ml): inhibition of spontaneous proliferation was observed; suppression of viral replication ([4]; 50 μg/ml, regardless of the time of treatment): 100%; suppression of viral replication ([4]; different concentrations, treatment 1 day before, same day or 1 day after inoculation): highly significant suppression of viral replication
3 | CCCCOC(=O)[C@@H](CCC(N)=O)NC(=O)[C@H](C)NC(=O)[C@@H](C)O[C@H]1[C@H](O)[C@@H](CO)OC(O)[C@@H]1NC(C)=O (stereo partly drawn) [Murabutide, Nac-Mur-L-Ala-DGln OnC4H9] | free of side effects | very good tolerance | inhibiting the proliferation | inhibiting the proliferation | inhibition of spontaneous proliferation was observed | inhibition of viral replication ([4]; 10 to 50 μg/ml, treatment on day -1, day 0 or day +1 relative to infection, P24 on day 7): completely inhibits viral replication
4 | N-acetyl-muramyl-L-alanyl-D-Isoglutamine [MDP] |  |  |  |  |  | inhibition of the replication of HIV [5]: partially inhibiting the replication of HIV; inhibition of the proliferation of guinea pig macrophages [6]: capable of inhibiting the proliferation
